The values that follow are results of earlier work, collected in publication PMC8217170, “Phase Ib dose-escalation study of the hypoxia-modifier Myo-inositol trispyrophosphate in patients with hepatopancreatobiliary tumors” (Nature Communications, 2021).

For one data set, the system named is pancreatic carcinoma. Set-up: method as in ref 15 (supplementary references). To be noted: 100 mg/kg gemcitabine; ref 15 (supplementary references); cited from earlier work.
For the next data set, the system named is hepatocellular carcinoma. Set-up: method as in ref 10 (supplementary references). To be noted: syngeneic, orthotopic rat model of hepatocellular carcinoma; ref 10 (supplementary references); cited from earlier work.

`Nc1ccn([C@@H]2O[C@H](CO)[C@@H](O)C2(F)F)c(=O)n1` [gemcitabine, reference compound]: the Survival with pancreatic carcinoma is recorded as 63 days.
As for `COc1cccc2c1C(=O)c1c(O)c3c(c(O)c1C2=O)C[C@@](O)(C(=O)CO)C[C@@H]3O[C@H]1C[C@H](N)[C@H](O)[C@H](C)O1` [doxorubicin, reference compound], in the data set on hepatocellular carcinoma, the “Rats alive after 100 days” value is recorded as “one out of ten”.
